Results published in patent publication US10981932B2, “Macrocyclic indole derivatives” (Bayer Aktiengesellschaft, priority 2016, dated 2021).
Counter-ions that a name gives are not always drawn. Like-named read-outs stand apart in the source and are kept apart here.

Columns and labels:
[1] = target: MCL-1 (Homo sapiens, UniProt Q07820); assay: Protein-protein interaction assay MCL-1/Noxa BH3 peptide (MCL-1 assay), TR-FRET; type: binding; details: MBP-MCL-1 / Noxa BH3-derived peptide, median
In short: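 Displacement of the biotinylated Noxa BH3 peptide from MBP-tagged human MCL-1 (1 nM) is detected by time-resolved FRET. Compounds are tested in duplicate across eleven concentrations up to 20 μM, incubated 1 h at 22 °C and overnight at 4 °C, and IC50 is fitted with a four-parameter equation.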

[2] = tested on: SUDHL5; assay: Induction of caspase-3/7 activity (Caspase-Glo 3/7), SUDHL5; type: cell-based; details: caspase-3/7 induction, SUDHL5 cells, 3 h treatment, median
In short: (§1)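 Caspase-Glo 3/7 luminescence, 3 h compound exposure, 37 °C, humidified. Minus medium-only blank. EC50 fit: C0=1, plateau = reference max induction.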

[3] = tested on: SUDHL10; assay: Induction of caspase-3/7 activity (Caspase-Glo 3/7), SUDHL10; type: cell-based; details: caspase-3/7 induction, SUDHL10 cells, 3 h treatment, median
In short: as §1

[4] = tested on: SUDHL5; assay: Anti-proliferative effect (CellTiter-Glo, 72 h), SUDHL5; type: cell-based; details: SUDHL5 cells, antiproliferation, median, read-out: Antiproli SUDHL5 [M] (median)
In short: (§2)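 CTG luminescence read-out after 72 h compound exposure, 37 °C, humidified. Time-zero reference plate read at plating.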

[5] = tested on: SUDHL10; assay: Anti-proliferative effect (CellTiter-Glo, 72 h), SUDHL10; type: cell-based; details: SUDHL10 cells, antiproliferation, median, read-out: Antiproli SUDHL10 [M] (median)
In short: as §2

[6] = tested on: A2780; assay: Anti-proliferative effect (CellTiter-Glo, 72 h), A2780; type: cell-based; details: A2780 cells, median, read-out: IC50 antiproliferation assay A2780 [M] (median)
In short: as §2

[7] = tested on: SUDHL5; assay: Induction of cytotoxicity (CellTiter-Glo, 5 h), SUDHL5
[8] = tested on: SUDHL10; assay: Induction of cytotoxicity (CellTiter-Glo, 5 h), SUDHL10
[9] = Homo sapiens, SU-DHL-5, 72 h, 72 h incubation
[10] = Homo sapiens, SU-DHL10, 72 h, 72 h incubation
[11] = Homo sapiens, SU-DHL-5, 5 h, read-out: Cytotox SUDHL5 [M] (median), SUDHL5 cells, cytotoxicity induction, CellTiter-Glo, 5 h incubation, median
[12] = Homo sapiens, SU-DHL10, 5 h, read-out: Cytotox SUDHL10 [M] (median), SUDHL10 cells, cytotoxicity induction, CellTiter-Glo, 5 h incubation, median
[13] = Homo sapiens, SU-DHL-5, 72 h, 72 h
[14] = Homo sapiens, SU-DHL10, 72 h, 72 h
[15] = Homo sapiens, SU-DHL-5, 5 h, read-out: Cytotox SUDHL5 [M] (median), SUDHL5 cells, cytotoxicity induction, CellTiter-Glo, 5 h, median
[16] = Homo sapiens, SU-DHL10, 5 h, read-out: Cytotox SUDHL10 [M] (median), SUDHL10 cells, cytotoxicity induction, CellTiter-Glo, 5 h, median
[17] = read-out: Cytotox SUDHL5 [M] (median), SUDHL5 cells, cytotoxicity induction, CellTiter-Glo, 5 h incubation, median
[18] = read-out: Cytotox SUDHL10 [M] (median), SUDHL10 cells, cytotoxicity induction, CellTiter-Glo, 5 h incubation, median

Chain of MCL-1 (Q07820 whole entry): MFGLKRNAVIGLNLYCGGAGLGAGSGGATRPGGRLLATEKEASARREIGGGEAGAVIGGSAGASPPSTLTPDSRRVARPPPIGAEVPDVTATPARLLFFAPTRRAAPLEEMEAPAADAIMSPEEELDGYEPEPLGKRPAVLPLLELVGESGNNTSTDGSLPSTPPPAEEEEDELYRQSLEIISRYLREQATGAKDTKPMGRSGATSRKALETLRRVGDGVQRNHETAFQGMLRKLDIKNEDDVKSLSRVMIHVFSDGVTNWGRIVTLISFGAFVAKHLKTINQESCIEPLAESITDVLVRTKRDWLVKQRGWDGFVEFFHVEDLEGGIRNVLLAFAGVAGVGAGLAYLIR

IC50 [1] | EC50 ([2]; Homo sapiens, SU-DHL-5, 3 h) | EC50 ([3]; Homo sapiens, SU-DHL10, 3 h) | IC50 [4, 9] | IC50 [5, 10] | IC50 ([6]; Homo sapiens, A2780, 72 h) | IC50 [4, 13] | IC50 [5, 14] | EC50 [2] | EC50 [3] | IC50 ([4]; 72 h incubation) | IC50 ([5]; 72 h incubation) | IC50 [6] | SMILES | IC50 [7, 11] | IC50 [8, 12] | IC50 [7, 15] | IC50 [8, 16] | IC50 [7, 17] | IC50 [8, 18]
0.0107 µM | 12 µM | > 33 µM | 1.6e-05 M | 1.69e-05 M | 2.03e-05 M | – | – | – | – | – | – | – | COCCn1nc(C2CC2)c2c1COCCCCn1c(C(=O)O)c(CCCOc3cccc4c3CCCC4)c3cccc-2c31 (racemic) [Example 164, (rac)-3-Cyclopropyl-1-(2-methoxyethyl)-7-[3-(5,6,7,8-tetrahydronaphthalen-1-yloxy)propyl]-1,10,11,12,13,15-hexahydropyrazolo[4′,3′:9,10][1,6]oxazacycloundecino[8,7,6-hi]indole-8-carboxylic Acid] | 9.23e-06 M | 3.07e-05 M | – | – | – | –
0.075 µM | > 33 µM | > 33 µM | – | – | > 3.3e-05 M | > 3.3e-05 M | > 3.3e-05 M | – | – | – | – | – | CN1CCN(Cc2c3c(nn2C)COCCCCn2c(C(=O)O)c(CCCOc4cccc5ccccc45)c4cccc-3c42)CC1 (racemic) [Example 359, (rac)-2-methyl-3-[(4-methylpiperazin-1-yl)methyl]-7-[3-(naphthalen-1-yloxy)propyl]-2,10,11,12,13,15-hexahydropyrazolo[4′,3′:9,10][1,6]oxazacycloundecino[8,7,6-hi]indole-8-carboxylic Acid] | – | – | > 3.3e-05 M | > 3.3e-05 M | – | –
1.04 µM | 17.3 µM | > 33 µM | – | – | 1.67e-05 M | 8.44e-06 M | 8.22e-06 M | – | – | – | – | – | Cn1nc(CN2CCCCC2)c2c1COCCCCn1c(C(=O)O)c(CCCOc3cccc4ccccc34)c3cccc-2c31 (single isomer, unassigned; enantiomer 1) [Example 333, 1-methyl-7-[3-(naphthalen-1-yloxy)propyl]-3-(piperidin-1-ylmethyl)-1,10,11,12,13,15-hexahydropyrazolo[4′,3′:9,10][1,6]oxazacycloundecino[8,7,6-hi]indole-8-carboxylic Acid (Enantiomer 1)] | – | – | 2.89e-05 M | > 3.3e-05 M | – | –
0.00233 µM | 2.47 µM | 8.35 µM | 4.45e-06 M | 7.14e-06 M | 1.9e-05 M | – | – | – | – | – | – | – | CCCc1nn(C)c2c1-c1c(C)ccc3c(CCCOc4cccc5ccccc45)c(C(=O)O)n(c13)CCCN(C)C2 (racemic) [Example 193, (rac)-7,9,12-trimethyl-1-[3-(naphthalen-1-yloxy)propyl]-1-propyl-4,5,6,7,8,9-hexahydropyrazolo[3′,4′:7,8][1,5]diazecino[9,10,1-hi]indole-2-carboxylic Acid] | 2.3e-06 M | 7.65e-06 M | – | – | – | –
0.185 µM | > 33 µM | > 33 µM | – | – | > 3.3e-05 M | > 3.3e-05 M | > 3.3e-05 M | – | – | – | – | – | CN(C)Cc1nn(C)c2c1-c1cccc3c(CCCOc4cccc5ccccc45)c(C(=O)O)n(c13)CCCCOC2 (racemic) [Example 331, (rac)-3-[(dimethylamino)methyl]-1-methyl-7-[3-(naphthalen-1-yloxy)propyl]-1,10,11,12,13,15-hexahydropyrazolo[4′,3′:9,10][1,6]oxazacycloundecino[8,7,6-hi]indole-8-carboxylic Acid] | – | – | > 3.3e-05 M | > 3.3e-05 M | – | –
0.0139 µM | 30.1 µM | 31.6 µM | 3.15e-05 M | 1.98e-05 M | 3.04e-05 M | – | – | – | – | – | – | – | Cn1nc2c(c1OC(F)F)-c1cccc3c(CCCOc4cccc5ccccc45)c(C(=O)O)n(c13)CCCCOC2 (racemic) [Example 234, (rac)-3-(difluoromethoxy)-2-methyl-7-[3-(naphthalen-1-yloxy)propyl]-2,10,11,12,13,15-hexahydropyrazolo[4′,3′:9,10][1,6]oxazacycloundecino[8,7,6-hi]indole-8-carboxylic Acid] | 2.71e-05 M | > 3.3e-05 M | – | – | – | –
0.106 µM | – | – | – | – | – | – | – | > 33 µM | > 33 µM | 2e-05 M | 1.02e-05 M | 2.21e-05 M | COCCn1nc(C2CC2)c2c1COCCCCn1c(C(=O)O)c(CCCOc3cccc4ccccc34)c3cccc-2c31 (single isomer, unassigned; enantiomer 2) [Example 104, 3-cyclopropyl-1-(2-methoxyethyl)-7-[3-(naphthalen-1-yloxy)propyl]-1,10,11,12,13,15-hexahydropyrazolo[4′,3′:9,10][1,6]oxazacycloundecino[8,7,6-hi]indole-8-carboxylic acid-N-ethylethanamine Salt (Enantiomer 2)] | – | – | – | – | > 3.3e-05 M | > 3.3e-05 M
0.203 µM | 18.9 µM | > 33 µM | – | – | > 3.3e-05 M | 9.13e-06 M | 2.02e-05 M | – | – | – | – | – | Cn1nc(CN2CCCCC2)c2c1COCCCCn1c(C(=O)O)c(CCCOc3cccc4ccccc34)c3cccc-2c31 (racemic) [Example 332, (rac)-1-methyl-7-[3-(naphthalen-1-yloxy)propyl]-3-(piperidin-1-ylmethyl)-1,10,11,12,13,15-hexahydropyrazolo[4′,3′:9,10][1,6]oxazacycloundecino[8,7,6-hi]indole-8-carboxylic Acid] | – | – | 1.94e-05 M | > 3.3e-05 M | – | –
0.00882 µM | – | 18.8 µM | 1.41e-05 M | 7.75e-06 M | 3.01e-05 M | – | – | 6.3 µM | – | – | – | – | Cc1cc2c(OCCCc3c(C(=O)O)n4c5c(cccc35)-c3c(C)nn(C)c3COCCCC4)cccc2cc1F (single isomer, unassigned; enantiomer 1) [Example 050, 7-{3-[(6-fluoro-7-methylnaphthalen-1-yl)oxy]propyl}-1,3-dimethyl-1,10,11,12,13,15-hexahydropyrazolo[4′,3′:9,10][1,6]oxazacycloundecino[8,7,6-hi]indole-8-carboxylic acid-N-ethylethanamine Salt (Enantiomer 1)] | – | – | – | – | 4.45e-06 M | 9.61e-06 M
0.0144 µM | 21 µM | > 33 µM | 1.33e-05 M | 3.25e-06 M | 1.9e-05 M | – | – | – | – | – | – | – | Cc1nn(C)c2c1-c1cccc3c(CCCOc4cccc5cc(Cl)ccc45)c(C(=O)O)n(c13)CCCCOC2 (racemic) [Example 040, (rac)-7-{3-[(6-chloronaphthalen-1-yl)oxy]propyl}-1,3-dimethyl-1,10,11,12,13,15-hexahydropyrazolo[4′,3′:9,10][1,6]oxazacycloundecino[8,7,6-hi]indole-8-carboxylic Acid] | 1.66e-05 M | > 3.3e-05 M | – | – | – | –
0.00546 µM | 3.13 µM | 7.26 µM | 2.35e-06 M | 5.34e-06 M | 2.02e-05 M | – | – | – | – | – | – | – | Cc1c2c(nn1C)CCCCCCn1c(C(=O)O)c(CCCOc3cccc4ccccc34)c3cccc-2c31 (racemic) [Example 190, (rac)-2,3-dimethyl-7-[3-(1-naphthyloxy)propyl]-10,11,12,13,14,15-hexahydro-2H-pyrazolo[4′,3′:4,5]azacycloundecino[3,2,1-hi]indole-8-carboxylic Acid] | 3.85e-06 M | 9.19e-06 M | – | – | – | –
